Experimental data: US20190246658A1, “METHODS OF HANDLING PAPAYA” (AGROFRESH INC., priority 2013, published 2019)

Legend:
[1] = tested on: Papayas ‘Golden’; test: Example 1: papaya skin color rating; format: in vivo; details: for Skin color ratings: 100 ppb of MCP, scale 1 green to 5 yellow
Procedure: Papayas ‘Golden’ were harvested in Linhares—Espírito Santo—Brazil. The harvested fruits were packed in MAP Bags and put in cardboard boxes.
(§1) The appropriate weight of papayas was placed in each bag after harvest. Bags were placed in the same cardboard boxes used to export the fruits. Papayas then were cold stored at (11° C.) at the Laboratory.
(§2) The Test Protocol that was used was as follows. 36 MAP bags were packed. Each bag held approximately 3.8 kg (8.4 lb) of papayas. One such bag was packed in each cardboard box. Total weight of papayas in MAP bags was approximately 137 kg. Approximately 91 kg of papayas were placed into cardboard boxes identical to those used for the MAP bags.
(§3) The MAP-packaged papayas were packaged as follows: Nine fruits, approximately 3.8 kg were carefully placed into microperforated bags, and the bags were sealed by twisting the open side of the bag, folding down the twisted end, and placing a rubber band around the twisted and folded end of the bag.
All papayas were kept at cold temperature (11° C.) during 27 days and after that the fruits (packed in MAP bags or not) were put in room temperature (22° C.) during 8 days.
One day after harvest, when the papayas had around 25 lbf of average firmness, each treatment set was marked, placed in a hermetical chamber at cold temperature (11° C.). All chambers were of equal size and packed the same way. Treatment was for 12 hours. In the chambers for the 3 “MCP” treatment groups, at the beginning of the treatment period, SmartFresh™ were placed in the chamber. The amount of SmartFresh™ was chosen to achieve the indicated concentration of 1-methylcyclopropene in the atmosphere of the chamber.
(§4) Evaluation for skin color and firmness was as follows. Day “zero” was the day the papayas were removed from the chamber and placed in storage.
The Papaya Skin Color was rated with the following scale: 1: green; 2: approximately 25%; 3: approximately 50% colored; 4: approximately 75% colored; 5: yellow.

[2] = tested on: Papayas ‘Golden’; test: Example 2 (yellow stage): pulp firmness, internal; format: in vivo, papaya; details: 500 ppb of MCP
Procedure: (§5) A similar test to Example 1 but papayas are tested during their yellow stage. Papayas ‘Golden’ were harvested in Linhares—Espírito Santo—Brazil. The fruits were packed in MAP Bags and put in cardboard boxes.
(§6) The fruits were first left at room temperature during 3 days to reach yellow maturity stage.
(§7) After that the appropriate weight of papayas was placed in each bag after harvest. Bags were placed in the same cardboard boxes used to export the fruits. Papayas then were cold stored at (11° C.) at the Laboratory.
as §2, with “18” for “36”, “68” for “137”, “68” for “91”
as §3
(§8) All papayas were kept at cold temperature (11° C.) during 26 days and after that the fruits (packed in MAP bags or not) were put in room temperature (22° C.) during 8 days.
(§9) After the 3 days for maturation at room temperature, when the papayas had around 5 lbf of average firmness, each treatment set was marked, placed in a hermetical chamber at cold temperature (11° C.). All chambers were of equal size and packed the same way. Treatment was for 12 hr. In the chambers for the 2 “MCP” treatment groups, at the beginning of the treatment period, SmartFresh™ were placed in the chamber. The amount of SmartFresh™ was chosen to achieve the indicated concentration of 1-methylcyclopropene in the atmosphere of the chamber.
as §4
For the Pulp Firmness evaluation two measurements were done, one for External Firmness and another for Internal Firmness. For External Firmness, the papayas had the skin removed with a peeler and the pulp firmness was measured with a Firmness Texture Analyzer (FTA) with a probe of 8 mm. For Internal Firmness, the papayas were cut transversally and a measurement close to the center of the fruit was taken with the FTA.

[3] = tested on: Papayas ‘Golden’; test: Example 2 (yellow stage): weight loss; format: in vivo, papaya; details: for Weight loss: 500 ppb of MCP
Procedure: as §5, §6, §7
as §2, with “18” for “36”, “68” for “137”, “68” for “91”
as §3, §8, §9
Weight loss was measured using the difference in weight observed in selected papayas from each treatment. These fruits were weighted before the cold storage and then the same fruits were weighted on the evaluations days.

[4] = tested on: Papayas ‘Golden’; test: Example 3: pulp firmness, external, MAP bags with different perforations; format: in vivo, papaya; details: for External Firmness - Difference with Untreated Fruits (Δ) / Pulp Firmness - External: 100 ppb of MCP; for External Firmness - Difference with Untreated Fruits (Δ): 5 Days @ 24° C.
Procedure: Papayas ‘Golden’ were harvested in Linhares—Espírito Santo—Brazil. The fruits were packed in MAP Bags and put in cardboard boxes.
as §1
as §2, with “40” for “36”, “One of” for “One”, “152” for “137”, “8” for “91”
as §3, with “kg,” for “kg”, “MAP-bags,” for “bags,”
All papayas were kept at cold temperature (11° C.) during 14 days and after that the fruits (packed in MAP bags or not) were put in room temperature (24° C.) during 5 days.
One day after harvest, when the papayas had around 30 lbf of average firmness, each treatment set was marked and placed in a hermetical chamber at cold temperature (11° C.). All chambers were of equal size and packed the same way. Treatment was for 12 hours.
In the chambers, SmartFresh™ was placed at the beginning of the treatment period for the 5 “MCP” treatment groups. The amount of SmartFresh™ was chosen to achieve the indicated concentration of 1-methylcyclopropene in the atmosphere of the chamber.
as §4
For External Firmness, the papayas had the skin removed with a peeler and the pulp firmness was measured with a Firmness Texture Analyzer (FTA) with a probe of 8 mm.

[5] = MAP bag, 26 days at 11° C. then 0 days @ 22° C.
[6] = MAP bag, 26 days at 11° C. then 4 days @ 22° C.
[7] = MAP bag, 26 days at 11° C. then 8 days @ 22° C.
[8] = No Bag, 26 days at 11° C. then 0 days @ 22° C.
[9] = No Bag, 26 days at 11° C. then 4 days @ 22° C.
[10] = No Bag, 26 days at 11° C. then 8 days @ 22° C.

CC1=CC1 [MCP, 1-methylcyclopropene]
papayas color, in words ([1]; 1-MCP alone (no MAP)): did not hold the papayas color
Skin color ratings ([1]; MAP bag, 27 days at 11° C. then 0 days @ 22° C.): 2.14
Skin color ratings ([1]; MAP bag, 27 days at 11° C. then 4 days @ 22° C.): 2.74
Skin color ratings ([1]; MAP bag, 27 days at 11° C. then 8 days @ 22° C.): 3.46
Skin color ratings ([1]; No Bag, 27 days at 11° C. then 0 days @ 22° C.): 1.70
Skin color ratings ([1]; No Bag, 27 days at 11° C. then 4 days @ 22° C.): 4.28
Skin color ratings ([1]; No Bag, 27 days at 11° C. then 8 days @ 22° C.): 4.44
Pulp Firmness - Internal [2, 5]: 1.20 lbf
Pulp Firmness - Internal [2, 6]: 0.92 lbf
Pulp Firmness - Internal [2, 7]: 0.88 lbf
Pulp Firmness - Internal [2, 8]: 1.21 lbf
Pulp Firmness - Internal [2, 9]: 1.55 lbf
Pulp Firmness - Internal [2, 10]: 0.95 lbf
weight loss, in words ([3]; 1-MCP alone (no MAP)): elevated weight loss
Weight loss [3, 5]: 0.68%
Weight loss [3, 6]: 1.21%
Weight loss [3, 7]: 2.09%
Weight loss [3, 8]: 5.42%
Weight loss [3, 9]: 9.07%
Weight loss [3, 10]: 16.53%
external firmness during shelf-life, in words ([4]; 1-MCP alone (no MAP)): not high enough external firmness
External Firmness - Difference with Untreated Fruits (Δ) ([4]; 24 Perf. MAP bag): 2.59 lbf
Pulp Firmness - External ([4]; 24 Perf. MAP bag, 14 days at 11° C. then 3 days @ 24° C.): 5.23 lbf
Pulp Firmness - External ([4]; 24 Perf. MAP bag, 14 days at 11° C. then 5 days @ 24° C.): 4.12 lbf
External Firmness - Difference with Untreated Fruits (Δ) ([4]; 48 Perf. MAP bag): 0.89 lbf
Pulp Firmness - External ([4]; 48 Perf. MAP bag, 14 days at 11° C. then 3 days @ 24° C.): 3.68 lbf
Pulp Firmness - External ([4]; 48 Perf. MAP bag, 14 days at 11° C. then 5 days @ 24° C.): 2.42 lbf
External Firmness - Difference with Untreated Fruits (Δ) ([4]; 90 Perf. MAP bag): 1.75 lbf
Pulp Firmness - External ([4]; 90 Perf. MAP bag, 14 days at 11° C. then 3 days @ 24° C.): 3.94 lbf
Pulp Firmness - External ([4]; 90 Perf. MAP bag, 14 days at 11° C. then 5 days @ 24° C.): 3.28 lbf
External Firmness - Difference with Untreated Fruits (Δ) ([4]; 180 Perf. MAP bag): 1.27 lbf
Pulp Firmness - External ([4]; 180 Perf. MAP bag, 14 days at 11° C. then 3 days @ 24° C.): 3.64 lbf
Pulp Firmness - External ([4]; 180 Perf. MAP bag, 14 days at 11° C. then 5 days @ 24° C.): 2.80 lbf
External Firmness - Difference with Untreated Fruits (Δ) ([4]; No Bag): 1.09 lbf
Pulp Firmness - External ([4]; No Bag, 14 days at 11° C. then 3 days @ 24° C.): 6.23 lbf
Pulp Firmness - External ([4]; No Bag, 14 days at 11° C. then 5 days @ 24° C.): 2.62 lbf
